The source of these data is paper PMC6934184, “Selective DNA-PKcs inhibition extends the therapeutic index of localized radiotherapy and chemotherapy” (The Journal of Clinical Investigation, 2019).

SMILES strings stand for the structures.

In the test the target is T1, RET Y791F (Homo sapiens, UniProt P07949, Y791F).
T1 construct: purchased Thermo Fisher Scientific (Life Technologies) SelectScreen
The test can be described thus: SelectScreen Z'LYTE. It is filed as biochemical. The procedure:
The in vitro kinase selectivity of NU5455 was determined using the SelectScreen Broad Assay Panel (Thermo Fisher Scientific) involving activity and binding assays (Supplemental Table 1). […] Class IA PI3Ks were measured using the p85α subunit.
Kinase [ATP] % Assay Kinase [ATP] % Assay Kinase [ATP] % Assay Kinase [ATP] % Assay […]
RET Y791F Km app 9.2 Z PIK3CG (p110 gamma) Km app 2.9 A KIT D816H n/a -0.2 L TAOK2 (TAO1) Km app -5.1 Z […]
SGK (SGK1) Km app 8.5 Z MAP4K2 (GCK) Km app 2.7 Z TLK2 n/a -0.3 L STK38 (NDR) n/a -5.9 L
MERTK (cMER) Km app 8.3 Z CDK2/cyclin A Km app 2.7 Z TGFBR1 (ALK5) n/a -0.4 L MATK (HYL) Km app -6.3 Z
FYN Km app 8.3 Z EPHA1 Km app 2.7 Z CLK3 Km app -0.5 Z ABL1 E255K Km app -6.6 Z
TEC n/a 8.1 L CDK2/cyclin E1 n/a 2.7 L MAP3K14 (NIK) n/a -0.5 L STK17A (DRAK1) n/a -6.6 L
KIT V654A n/a 8.1 L TESK2 n/a 2.7 L AKT3 (PKB gamma) Km app -0.5 Z JAK2 JH1 JH2 Km app -6.7 Z
ROS1 Km app 8.0 Z SPHK1 Km app 2.7 A MAP3K9 (MLK1) Km app -0.5 Z PRKACB (PRKAC beta) n/a -6.8 L
FGFR3 K650E Km app 7.9 Z AMPK A2/B1/G1 Km app 2.6 Z IKBKB (IKK beta) Km app -0.6 Z PDGFRA (PDGFR alpha) Km app -6.8 Z
RAF1 (cRAF) Y340D Y341D 100 7.9 Z DYRK3 Km app 2.6 Z CAMK2A (CaMKII alpha) Km app -0.6 Z NEK9 Km app -7.2 Z
PI4KA (PI4K alpha) 10 7.8 A CSNK1D (CK1 delta) Km app 2.6 Z PRKCB1 (PKC beta I) Km app -0.7 Z PDK1 Km app -7.3 Z
HIPK2 Km app 7.8 Z ACVR2A n/a 2.5 L TTK n/a -0.7 L RPS6KB1 (p70S6K) Km app -7.8 Z […]

T1 sequence (P07949 29-1114 Y791F): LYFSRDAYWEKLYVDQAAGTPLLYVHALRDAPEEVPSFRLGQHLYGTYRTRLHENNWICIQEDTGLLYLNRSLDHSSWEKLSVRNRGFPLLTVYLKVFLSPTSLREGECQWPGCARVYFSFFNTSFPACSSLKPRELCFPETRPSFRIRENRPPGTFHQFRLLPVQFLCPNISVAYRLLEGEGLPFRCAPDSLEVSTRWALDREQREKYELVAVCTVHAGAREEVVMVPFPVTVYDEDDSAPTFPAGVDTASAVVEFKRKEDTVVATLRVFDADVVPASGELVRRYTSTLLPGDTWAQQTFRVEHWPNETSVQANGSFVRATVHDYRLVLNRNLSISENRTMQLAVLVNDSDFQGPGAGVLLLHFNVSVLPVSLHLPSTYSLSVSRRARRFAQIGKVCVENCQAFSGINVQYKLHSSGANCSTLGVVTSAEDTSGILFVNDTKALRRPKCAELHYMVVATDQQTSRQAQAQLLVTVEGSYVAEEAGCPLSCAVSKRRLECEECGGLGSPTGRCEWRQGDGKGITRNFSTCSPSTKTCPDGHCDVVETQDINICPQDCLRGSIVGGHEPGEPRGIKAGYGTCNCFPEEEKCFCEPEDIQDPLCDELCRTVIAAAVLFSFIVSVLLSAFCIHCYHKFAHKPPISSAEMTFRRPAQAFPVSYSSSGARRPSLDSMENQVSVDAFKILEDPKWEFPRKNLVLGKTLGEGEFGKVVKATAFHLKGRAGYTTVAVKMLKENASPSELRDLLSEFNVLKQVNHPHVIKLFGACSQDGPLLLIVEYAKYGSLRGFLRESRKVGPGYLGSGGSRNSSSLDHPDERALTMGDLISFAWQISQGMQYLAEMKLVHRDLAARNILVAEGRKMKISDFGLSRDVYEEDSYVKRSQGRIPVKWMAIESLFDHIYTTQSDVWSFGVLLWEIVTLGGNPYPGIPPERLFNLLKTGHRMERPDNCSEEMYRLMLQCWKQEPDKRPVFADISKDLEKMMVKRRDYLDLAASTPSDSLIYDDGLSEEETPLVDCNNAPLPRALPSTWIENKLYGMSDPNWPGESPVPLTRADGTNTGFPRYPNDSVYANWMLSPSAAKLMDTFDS

By inhibition is commonly meant the change of the read-out against control, counted positive when it falls. A high value points to a strong effect. `CN(C(=O)CN1CCOCC1)c1ccc2sc3c(-c4cccc5c(=O)cc(N6CC7CCC(C6)O7)oc45)cccc3c2c1` [NU5455] gave an inhibition at 1 µM of 9.2%.
